Assays:
IKZF2 = molecular target: T1, IKZF2 (Homo sapiens, UniProt Q96SW2+Q9UKS7); experiment: Western-blot assay of substrate protein degradation in hPBMCs, IKZF2; assay type: cell-based; conditions: 24 hours of compound treatment, compounds tested at 50 nM and 500 nM (concentration of the table not stated)
T1 construct: endogenous in cells; host or cells: hPBMCs (Milecell Biotechnologies)

WEE1 = molecular target: T2, WEE1 (Homo sapiens, UniProt P30291+Q96SW2); experiment: Western-blot assay of substrate protein degradation in hPBMCs, WEE1; assay type: cell-based; conditions: 24 hours of compound treatment, compounds tested at 50 nM and 500 nM (concentration of the table not stated)
T2 construct: endogenous in cells; host or cells: hPBMCs (Milecell Biotechnologies)
T2 sequence (P30291 whole entry): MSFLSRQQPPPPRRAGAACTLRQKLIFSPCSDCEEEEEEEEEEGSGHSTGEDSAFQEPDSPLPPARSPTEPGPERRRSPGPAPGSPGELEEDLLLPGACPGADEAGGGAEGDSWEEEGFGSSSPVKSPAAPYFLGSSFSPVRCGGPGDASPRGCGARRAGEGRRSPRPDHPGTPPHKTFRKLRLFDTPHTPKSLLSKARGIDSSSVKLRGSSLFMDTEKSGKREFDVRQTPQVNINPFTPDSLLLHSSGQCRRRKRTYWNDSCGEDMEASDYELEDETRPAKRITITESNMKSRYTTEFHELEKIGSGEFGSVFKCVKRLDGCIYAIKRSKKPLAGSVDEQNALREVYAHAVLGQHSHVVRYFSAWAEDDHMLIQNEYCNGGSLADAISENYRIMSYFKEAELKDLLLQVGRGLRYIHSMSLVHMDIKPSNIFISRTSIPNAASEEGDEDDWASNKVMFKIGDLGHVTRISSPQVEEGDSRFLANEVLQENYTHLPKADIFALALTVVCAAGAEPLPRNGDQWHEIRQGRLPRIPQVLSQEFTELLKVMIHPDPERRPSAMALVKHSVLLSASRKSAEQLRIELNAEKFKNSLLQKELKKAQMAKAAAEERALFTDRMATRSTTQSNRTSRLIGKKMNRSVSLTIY
T2 sequence (Q96SW2 whole entry): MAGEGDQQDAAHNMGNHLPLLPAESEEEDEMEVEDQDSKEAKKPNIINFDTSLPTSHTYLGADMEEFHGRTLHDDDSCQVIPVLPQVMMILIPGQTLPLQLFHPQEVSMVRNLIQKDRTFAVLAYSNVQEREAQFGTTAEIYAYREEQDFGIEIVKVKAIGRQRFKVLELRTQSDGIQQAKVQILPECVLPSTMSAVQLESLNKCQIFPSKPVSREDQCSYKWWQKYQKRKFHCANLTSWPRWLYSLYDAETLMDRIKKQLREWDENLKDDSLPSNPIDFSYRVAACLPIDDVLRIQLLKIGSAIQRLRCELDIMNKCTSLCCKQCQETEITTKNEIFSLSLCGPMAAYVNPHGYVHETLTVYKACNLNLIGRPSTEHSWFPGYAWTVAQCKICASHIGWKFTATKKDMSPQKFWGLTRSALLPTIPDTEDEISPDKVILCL
T2 sequence (Q16531 whole entry partner): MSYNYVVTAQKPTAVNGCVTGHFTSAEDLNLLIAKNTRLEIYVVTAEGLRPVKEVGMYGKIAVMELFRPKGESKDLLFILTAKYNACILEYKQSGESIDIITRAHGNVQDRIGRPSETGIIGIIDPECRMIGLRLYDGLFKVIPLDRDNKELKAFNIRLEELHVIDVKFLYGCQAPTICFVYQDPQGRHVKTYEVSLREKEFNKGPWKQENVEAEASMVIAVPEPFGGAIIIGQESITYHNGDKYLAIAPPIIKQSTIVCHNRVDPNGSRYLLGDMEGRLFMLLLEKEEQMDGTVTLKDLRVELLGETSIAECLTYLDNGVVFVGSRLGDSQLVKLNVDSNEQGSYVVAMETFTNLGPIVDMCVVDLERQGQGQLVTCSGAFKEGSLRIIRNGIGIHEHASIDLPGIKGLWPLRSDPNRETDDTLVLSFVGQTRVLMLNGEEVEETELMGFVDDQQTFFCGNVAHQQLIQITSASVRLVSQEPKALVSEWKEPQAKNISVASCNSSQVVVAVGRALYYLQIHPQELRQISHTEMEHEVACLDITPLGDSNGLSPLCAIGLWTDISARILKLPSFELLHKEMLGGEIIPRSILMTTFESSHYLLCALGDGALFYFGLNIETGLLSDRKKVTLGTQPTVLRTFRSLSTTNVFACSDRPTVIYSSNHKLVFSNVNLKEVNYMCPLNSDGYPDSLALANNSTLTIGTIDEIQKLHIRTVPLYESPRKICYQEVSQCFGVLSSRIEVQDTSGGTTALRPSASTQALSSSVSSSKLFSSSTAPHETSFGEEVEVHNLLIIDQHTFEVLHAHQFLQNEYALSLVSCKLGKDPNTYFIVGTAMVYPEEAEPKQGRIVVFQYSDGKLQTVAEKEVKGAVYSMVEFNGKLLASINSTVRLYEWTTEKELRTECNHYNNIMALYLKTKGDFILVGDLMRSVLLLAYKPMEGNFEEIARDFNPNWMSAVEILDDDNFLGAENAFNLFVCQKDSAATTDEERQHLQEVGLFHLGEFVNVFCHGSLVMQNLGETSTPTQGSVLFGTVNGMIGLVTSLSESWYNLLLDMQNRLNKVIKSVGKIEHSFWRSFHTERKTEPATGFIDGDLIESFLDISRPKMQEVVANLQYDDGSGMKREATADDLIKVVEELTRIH

IKZF3 = molecular target: T3, IKZF3 (Homo sapiens, UniProt Q96SW2+Q9UKT9); experiment: Western-blot assay of substrate protein degradation in hPBMCs, IKZF3; assay type: cell-based; conditions: 24 hours of compound treatment, compounds tested at 50 nM and 500 nM (concentration of the table not stated)
T3 construct: endogenous in cells; host or cells: hPBMCs (Milecell Biotechnologies)
T3 sequence (Q9UKT9 whole entry): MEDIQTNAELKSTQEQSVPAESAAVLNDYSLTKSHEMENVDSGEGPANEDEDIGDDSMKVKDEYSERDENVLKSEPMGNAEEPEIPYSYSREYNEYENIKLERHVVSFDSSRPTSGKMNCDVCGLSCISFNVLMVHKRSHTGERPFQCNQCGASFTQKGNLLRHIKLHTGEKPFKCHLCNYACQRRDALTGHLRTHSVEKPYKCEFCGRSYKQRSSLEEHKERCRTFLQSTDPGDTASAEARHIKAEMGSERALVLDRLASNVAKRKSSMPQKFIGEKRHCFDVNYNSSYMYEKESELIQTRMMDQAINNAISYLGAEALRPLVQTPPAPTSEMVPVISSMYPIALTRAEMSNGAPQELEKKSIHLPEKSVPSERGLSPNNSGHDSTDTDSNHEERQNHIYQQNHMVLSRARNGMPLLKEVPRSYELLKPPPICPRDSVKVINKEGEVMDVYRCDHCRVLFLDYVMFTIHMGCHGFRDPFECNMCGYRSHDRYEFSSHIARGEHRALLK
T3 sequence (Q96SW2 whole entry): as the sequence (Q96SW2 whole entry) above
T3 sequence (Q16531 whole entry partner): as the sequence (Q16531 whole entry partner) above

GSPT1 = molecular target: T4, GSPT1 (Homo sapiens, UniProt P15170+Q96SW2); experiment: Western-blot assay of substrate protein degradation in hPBMCs, GSPT1; assay type: cell-based; conditions: 24 hours of compound treatment, compounds tested at 50 nM and 500 nM (concentration of the table not stated)
T4 construct: endogenous in cells; host or cells: hPBMCs (Milecell Biotechnologies)
T4 sequence (P15170 whole entry): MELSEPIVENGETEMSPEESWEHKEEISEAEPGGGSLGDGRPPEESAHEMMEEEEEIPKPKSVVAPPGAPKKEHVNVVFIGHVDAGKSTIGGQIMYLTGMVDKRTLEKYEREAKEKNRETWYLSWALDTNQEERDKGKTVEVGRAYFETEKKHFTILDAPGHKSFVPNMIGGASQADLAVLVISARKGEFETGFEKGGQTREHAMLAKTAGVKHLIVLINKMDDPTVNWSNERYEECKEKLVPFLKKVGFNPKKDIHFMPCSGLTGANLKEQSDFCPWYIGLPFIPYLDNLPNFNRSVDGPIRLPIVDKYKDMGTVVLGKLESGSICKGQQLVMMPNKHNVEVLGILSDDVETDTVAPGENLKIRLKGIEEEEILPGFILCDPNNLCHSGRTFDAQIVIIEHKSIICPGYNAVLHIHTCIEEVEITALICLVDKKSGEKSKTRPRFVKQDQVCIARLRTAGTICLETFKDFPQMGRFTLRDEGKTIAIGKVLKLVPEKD
T4 sequence (Q96SW2 whole entry): as the sequence (Q96SW2 whole entry) above
T4 sequence (Q16531 whole entry partner): as the sequence (Q16531 whole entry partner) above

[1] = molecular target: T5, human Cereblon WT GST-tagged protein (Homo sapiens, UniProt Q96SW2); experiment: CRBN-binding affinity by HTRF (CEREBLON BINDING kit); conditions: HTRF inhibitory activity, CEREBLON BINDING kit; read-out: HTRF IC50
T5 construct: purchased CISBIO 64BDCRBNPEH
T5 sequence (Q96SW2 whole entry): as the sequence (Q96SW2 whole entry) above

CK1α = molecular target: T6, CK1α (Homo sapiens, UniProt P48729+Q96SW2); experiment: Western-blot assay of substrate protein degradation in hPBMCs, CK1α; assay type: cell-based; conditions: 24 hours of compound treatment, compounds tested at 50 nM and 500 nM (concentration of the table not stated)
T6 construct: endogenous in cells; host or cells: hPBMCs (Milecell Biotechnologies)

IKZF1 = molecular target: T7, IKZF1 (Homo sapiens, UniProt Q13422+Q96SW2); experiment: Western-blot assay of substrate protein degradation in hPBMCs, IKZF1; assay type: cell-based; conditions: 24 hours of compound treatment, compounds tested at 50 nM and 500 nM (concentration of the table not stated)
T7 construct: endogenous in cells; host or cells: hPBMCs (Milecell Biotechnologies)
T7 sequence (Q13422 whole entry): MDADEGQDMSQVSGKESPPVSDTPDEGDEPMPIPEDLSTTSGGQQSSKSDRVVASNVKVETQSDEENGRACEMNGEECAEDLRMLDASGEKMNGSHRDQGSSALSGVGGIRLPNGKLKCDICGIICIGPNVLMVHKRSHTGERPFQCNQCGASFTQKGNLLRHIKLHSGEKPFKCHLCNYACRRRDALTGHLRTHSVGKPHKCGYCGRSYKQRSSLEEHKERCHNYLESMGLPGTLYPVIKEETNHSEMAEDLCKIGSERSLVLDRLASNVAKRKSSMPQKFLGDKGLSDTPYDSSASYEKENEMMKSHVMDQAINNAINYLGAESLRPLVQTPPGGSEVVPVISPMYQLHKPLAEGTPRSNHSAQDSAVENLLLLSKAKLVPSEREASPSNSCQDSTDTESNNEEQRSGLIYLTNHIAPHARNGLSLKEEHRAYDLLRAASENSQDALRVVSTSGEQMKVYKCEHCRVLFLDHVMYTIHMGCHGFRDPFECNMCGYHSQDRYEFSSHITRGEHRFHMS
T7 sequence (Q96SW2 whole entry): as the sequence (Q96SW2 whole entry) above
T7 sequence (Q16531 whole entry partner): as the sequence (Q16531 whole entry partner) above

T1 sequence (Q9UKS7 whole entry): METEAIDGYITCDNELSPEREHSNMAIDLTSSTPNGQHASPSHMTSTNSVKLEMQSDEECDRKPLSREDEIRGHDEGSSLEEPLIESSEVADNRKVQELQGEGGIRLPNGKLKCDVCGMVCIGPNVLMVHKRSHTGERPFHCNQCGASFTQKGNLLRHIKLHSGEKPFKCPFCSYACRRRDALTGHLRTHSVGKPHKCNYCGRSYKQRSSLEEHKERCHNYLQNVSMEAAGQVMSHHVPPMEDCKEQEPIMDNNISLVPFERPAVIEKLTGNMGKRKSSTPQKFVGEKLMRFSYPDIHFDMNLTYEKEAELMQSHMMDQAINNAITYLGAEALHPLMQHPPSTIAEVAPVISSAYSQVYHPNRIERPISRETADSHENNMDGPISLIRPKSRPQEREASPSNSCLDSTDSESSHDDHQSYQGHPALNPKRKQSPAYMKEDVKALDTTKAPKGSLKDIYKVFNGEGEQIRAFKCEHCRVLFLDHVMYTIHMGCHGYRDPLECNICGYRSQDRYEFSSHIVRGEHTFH
T1 sequence (Q96SW2 whole entry): as the sequence (Q96SW2 whole entry) above
T1 sequence (Q16531 whole entry partner): as the sequence (Q16531 whole entry partner) above

Row | Structure (SMILES) | IKZF2 substrate protein remaining % (IKZF2) | Weel substrate protein remaining % (WEE1) | IKZF3 substrate protein remaining % (IKZF3) | GSPT1 substrate protein remaining % (GSPT1) | IC50 [1] [nM] | CK1a substrate protein remaining % (CK1α) | IKZF 1 substrate protein remaining % (IKZF1)
1 | Cc1nc(C2CCN(Cc3ccc4c(c3)CN(C3CCC(=O)NC3=O)C4=O)CC2)c2c3c(sc2n1)CCCC3 (stereo not drawn) [GT-04993, 3-(5-((4-(2-methyl-5,6,7,8-tetrahydrobenzo[4,5]thieno[2,3-d]pyrimidin-4-yl)piperidin-1-yl)methyl)-1-oxoisoindolin-2-yl)piperidine-2,6-dione] | A (0% ≤ substrate protein remaining % ≤ 80%) | A (0% ≤ substrate protein remaining % ≤ 80%) | A (0% ≤ substrate protein remaining % ≤ 80%) | A (0% ≤ substrate protein remaining % ≤ 80%) | < 500 | A (0% ≤ substrate protein remaining % ≤ 80%) | A (0% ≤ substrate protein remaining % ≤ 80%)
2 | O=C1CCC(N2Cc3cc(CN4CCC(c5ncnc6sc7c(c56)CCC7)CC4)ccc3C2=O)C(=O)N1 (stereo not drawn) [GT-04994, 3-(5-((4-(6,7-dihydro-5H-cyclopenta[4,5]thieno[2,3-d]pyrimidin-4-yl)piperidin-1-yl)methyl)-1-oxoisoindolin-2-yl)piperidine-2,6-dione] | A (0% ≤ substrate protein remaining % ≤ 80%) | A (0% ≤ substrate protein remaining % ≤ 80%) | A (0% ≤ substrate protein remaining % ≤ 80%) | B (80%< substrate protein remaining %≤ 100%) | < 500 | B (80%< substrate protein remaining %≤ 100%) | A (0% ≤ substrate protein remaining % ≤ 80%)
3 | O=C1CCC(N2Cc3cc(CN4CCC(c5ncnc6scc(-c7ccccc7)c56)CC4)ccc3C2=O)C(=O)N1 (stereo not drawn) [GT-04995, 3-(1-oxo-5-((4-(5-phenylthieno[2,3-d]pyrimidin-4-yl)piperidin-1-yl)methyl)isoindolin-2-yl)piperidine-2,6-dione] | A (0% ≤ substrate protein remaining % ≤ 80%) | A (0% ≤ substrate protein remaining % ≤ 80%) | A (0% ≤ substrate protein remaining % ≤ 80%) | B (80%< substrate protein remaining %≤ 100%) | < 500 | B (80%< substrate protein remaining %≤ 100%) | A (0% ≤ substrate protein remaining % ≤ 80%)
4 | O=C1CCC(N2Cc3cc(CN4CCN(c5ncnc6sc7c(c56)CCC7)CC4)ccc3C2=O)C(=O)N1 (stereo not drawn) [GT-04996, 3-(5-((4-(6,7-dihydro-5H-cyclopenta[4,5]thieno[2,3-d]pyrimidin-4-yl)piperazin-1-yl)methyl)-1-oxoisoindolin-2-yl)piperidine-2,6-dione] | A (0% ≤ substrate protein remaining % ≤ 80%) | A (0% ≤ substrate protein remaining % ≤ 80%) | A (0% ≤ substrate protein remaining % ≤ 80%) | A (0% ≤ substrate protein remaining % ≤ 80%) | < 500 | A (0% ≤ substrate protein remaining % ≤ 80%) | A (0% ≤ substrate protein remaining % ≤ 80%)
5 | Cc1sc2ncnc(C3CCN(Cc4ccc5c(c4)CN(C4CCC(=O)NC4=O)C5=O)CC3)c2c1C (stereo not drawn) [GT-05034, 3-(5-((4-(5,6-dimethylthieno[2,3-d]pyrimidin-4-yl)piperidin-1-yl)methyl)-1-oxoisoindolin-2-yl)piperidine-2,6-dione] | A (0% ≤ substrate protein remaining % ≤ 80%) | B (80%< substrate protein remaining %≤ 100%) | A (0% ≤ substrate protein remaining % ≤ 80%) | A (0% ≤ substrate protein remaining % ≤ 80%) | < 500 | A (0% ≤ substrate protein remaining % ≤ 80%) | A (0% ≤ substrate protein remaining % ≤ 80%)
6 | Cc1nc(C2=CCN(Cc3ccc4c(c3)CN(C3CCC(=O)NC3=O)C4=O)CC2)c2c(-c3ccccc3)csc2n1 (stereo not drawn) [GT-05102, 3-(5-((4-(2-methyl-5-phenylthieno[2,3-d]pyrimidin-4-yl)-3,6-dihydropyridin-1(2H)-yl)methyl)-1-oxoisoindolin-2-yl)piperidine-2,6-dione] | A (0% ≤ substrate protein remaining % ≤ 80%) | A (0% ≤ substrate protein remaining % ≤ 80%) | B (80%< substrate protein remaining %≤ 100%) | A (0% ≤ substrate protein remaining % ≤ 80%) | < 500 | B (80%< substrate protein remaining %≤ 100%) | A (0% ≤ substrate protein remaining % ≤ 80%)
7 | Cc1nc(N2CCN(Cc3ccc4c(c3)CN(C3CCC(=O)NC3=O)C4=O)CC2)c2c3c(sc2n1)CCC3 (stereo not drawn) [GT-05157, 3-(5-((4-(2-methyl-6,7-dihydro-5H-cyclopenta[4,5]thieno[2,3-d]pyrimidin-4-yl)piperazin-1-yl)methyl)-1-oxoisoindolin-2-yl)piperidine-2,6-dione] | A (0% ≤ substrate protein remaining % ≤ 80%) | B (80%< substrate protein remaining %≤ 100%) | A (0% ≤ substrate protein remaining % ≤ 80%) | A (0% ≤ substrate protein remaining % ≤ 80%) | < 500 | A (0% ≤ substrate protein remaining % ≤ 80%) | A (0% ≤ substrate protein remaining % ≤ 80%)
8 | Cc1nc(C2CCN(Cc3ccc4c(c3)CN(C3CCC(=O)NC3=O)C4=O)CC2)c2c(-c3ccccc3)csc2n1 (stereo not drawn) [GT-05158, 3-(5-((4-(2-methyl-5-phenylthieno[2,3-d]pyrimidin-4-yl)piperidin-1-yl)methyl)-1-oxoisoindolin-2-yl)piperidine-2,6-dione] | A (0% ≤ substrate protein remaining % ≤ 80%) | B (80%< substrate protein remaining %≤ 100%) | A (0% ≤ substrate protein remaining % ≤ 80%) | A (0% ≤ substrate protein remaining % ≤ 80%) | < 500 | B (80%< substrate protein remaining %≤ 100%) | B (80%< substrate protein remaining %≤ 100%)
9 | O=C1CCC(N2Cc3cc(CN4CCC(c5ncnc6sc(-c7ccccc7)cc56)CC4)ccc3C2=O)C(=O)N1 (stereo not drawn) [GT-05159, 3-(1-oxo-5-((4-(6-phenylthieno[2,3-d]pyrimidin-4-yl)piperidin-1-yl)methyl)isoindolin-2-yl)piperidine-2,6-dione] | A (0% ≤ substrate protein remaining % ≤ 80%) | B (80%< substrate protein remaining %≤ 100%) | A (0% ≤ substrate protein remaining % ≤ 80%) | A (0% ≤ substrate protein remaining % ≤ 80%) | < 500 | B (80%< substrate protein remaining %≤ 100%) | A (0% ≤ substrate protein remaining % ≤ 80%)
10 | O=C1CCC(N2Cc3cc(CN4CCN(c5ncnc6sc7c(c56)CCCC7)CC4)ccc3C2=O)C(=O)N1 (stereo not drawn) [GT-05209, 3-(1-oxo-5-((4-(5,6,7,8-tetrahydrobenzo[4,5]thieno[2,3-d]pyrimidin-4-yl)piperazin-1-yl)methyl)isoindolin-2-yl)piperidine-2,6-dione] | A (0% ≤ substrate protein remaining % ≤ 80%) | A (0% ≤ substrate protein remaining % ≤ 80%) | A (0% ≤ substrate protein remaining % ≤ 80%) | B (80%< substrate protein remaining %≤ 100%) | < 500 | B (80%< substrate protein remaining %≤ 100%) | A (0% ≤ substrate protein remaining % ≤ 80%)
11 | Cc1nc(C2CCN(Cc3ccc4c(c3)CN(C3CCC(=O)NC3=O)C4=O)CC2)c2c3c(sc2n1)CCC3 (stereo not drawn) [GT-05210, 3-(5-((4-(2-methyl-6,7-dihydro-5H-cyclopenta[4,5]thieno[2,3-d]pyrimidin-4-yl)piperidin-1-yl)methyl)-1-oxoisoindolin-2-yl)piperidine-2,6-dione] | A (0% ≤ substrate protein remaining % ≤ 80%) | A (0% ≤ substrate protein remaining % ≤ 80%) | A (0% ≤ substrate protein remaining % ≤ 80%) | B (80%< substrate protein remaining %≤ 100%) | 500 to 1000 | A (0% ≤ substrate protein remaining % ≤ 80%) | A (0% ≤ substrate protein remaining % ≤ 80%)
12 | O=C1CCC(N2Cc3cc(CN4CCC(c5ncnc6sc7c(c56)CCCC7)CC4)ccc3C2=O)C(=O)N1 (stereo not drawn) [GT-05265, 3-(1-oxo-5-((4-(5,6,7,8-tetrahydrobenzo[4,5]thieno[2,3-d]pyrimidin-4-yl)piperidin-1-yl)methyl)isoindolin-2-yl)piperidine-2,6-dione] | A (0% ≤ substrate protein remaining % ≤ 80%) | B (80%< substrate protein remaining %≤ 100%) | A (0% ≤ substrate protein remaining % ≤ 80%) | A (0% ≤ substrate protein remaining % ≤ 80%) | < 500 | A (0% ≤ substrate protein remaining % ≤ 80%) | A (0% ≤ substrate protein remaining % ≤ 80%)
